Laboratory results as given in US11629143B2, “HipK4 inhibitors and uses thereof” (Vibliome Therapeutics, LLC, priority 2020, dated 2023).

What was measured:
Assay in all cases: Kinase panel (mobility shift)
Assay type in all cases: biochemical
[1] = target: T1, DDR2 (Homo sapiens, UniProt Q16832)
T1 sequence (Q16832 22-855): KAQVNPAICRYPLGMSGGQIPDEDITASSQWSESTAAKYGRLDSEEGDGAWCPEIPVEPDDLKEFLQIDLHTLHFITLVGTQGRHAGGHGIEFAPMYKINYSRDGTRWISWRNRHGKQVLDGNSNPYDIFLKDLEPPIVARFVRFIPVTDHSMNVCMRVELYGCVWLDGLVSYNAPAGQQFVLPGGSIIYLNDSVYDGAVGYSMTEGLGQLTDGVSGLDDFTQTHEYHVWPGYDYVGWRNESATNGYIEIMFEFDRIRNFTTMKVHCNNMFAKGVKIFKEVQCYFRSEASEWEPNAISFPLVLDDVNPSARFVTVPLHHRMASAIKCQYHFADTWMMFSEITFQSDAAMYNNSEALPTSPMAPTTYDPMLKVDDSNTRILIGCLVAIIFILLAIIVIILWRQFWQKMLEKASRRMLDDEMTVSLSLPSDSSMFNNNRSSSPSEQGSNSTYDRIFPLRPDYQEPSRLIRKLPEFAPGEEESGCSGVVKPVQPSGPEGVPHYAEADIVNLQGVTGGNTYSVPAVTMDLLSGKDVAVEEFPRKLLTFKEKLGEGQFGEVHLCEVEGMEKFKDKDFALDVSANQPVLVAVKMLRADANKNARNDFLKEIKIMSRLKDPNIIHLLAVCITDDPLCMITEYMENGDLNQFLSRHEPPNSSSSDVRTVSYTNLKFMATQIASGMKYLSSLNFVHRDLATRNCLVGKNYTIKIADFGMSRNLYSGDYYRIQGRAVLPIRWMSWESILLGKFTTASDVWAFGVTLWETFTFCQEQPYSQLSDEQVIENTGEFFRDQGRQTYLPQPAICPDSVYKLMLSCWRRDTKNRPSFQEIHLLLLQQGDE
Method in brief: (§1)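 Each kinase was incubated with a fluorescently labeled substrate and compound in a standard reaction mix. After the reaction was stopped, product and substrate were separated on microfluidic chips by electrophoretic mobility shift. Activity came from comparing product and substrate peak fluorescence, graded A (95% or greater), B (90%-94%) or C (80%-89%) at 5 um.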

[2] = target: EPH-A5 (Homo sapiens, UniProt P54756); conditions: at 5 um
Method in brief: as §1

[3] = target: P38-b (Homo sapiens, UniProt Q15759)
Method in brief: as §1

[4] = target: T2, TAOK3 (Homo sapiens, UniProt Q9H2K8)
T2 sequence (Q9H2K8 1-898): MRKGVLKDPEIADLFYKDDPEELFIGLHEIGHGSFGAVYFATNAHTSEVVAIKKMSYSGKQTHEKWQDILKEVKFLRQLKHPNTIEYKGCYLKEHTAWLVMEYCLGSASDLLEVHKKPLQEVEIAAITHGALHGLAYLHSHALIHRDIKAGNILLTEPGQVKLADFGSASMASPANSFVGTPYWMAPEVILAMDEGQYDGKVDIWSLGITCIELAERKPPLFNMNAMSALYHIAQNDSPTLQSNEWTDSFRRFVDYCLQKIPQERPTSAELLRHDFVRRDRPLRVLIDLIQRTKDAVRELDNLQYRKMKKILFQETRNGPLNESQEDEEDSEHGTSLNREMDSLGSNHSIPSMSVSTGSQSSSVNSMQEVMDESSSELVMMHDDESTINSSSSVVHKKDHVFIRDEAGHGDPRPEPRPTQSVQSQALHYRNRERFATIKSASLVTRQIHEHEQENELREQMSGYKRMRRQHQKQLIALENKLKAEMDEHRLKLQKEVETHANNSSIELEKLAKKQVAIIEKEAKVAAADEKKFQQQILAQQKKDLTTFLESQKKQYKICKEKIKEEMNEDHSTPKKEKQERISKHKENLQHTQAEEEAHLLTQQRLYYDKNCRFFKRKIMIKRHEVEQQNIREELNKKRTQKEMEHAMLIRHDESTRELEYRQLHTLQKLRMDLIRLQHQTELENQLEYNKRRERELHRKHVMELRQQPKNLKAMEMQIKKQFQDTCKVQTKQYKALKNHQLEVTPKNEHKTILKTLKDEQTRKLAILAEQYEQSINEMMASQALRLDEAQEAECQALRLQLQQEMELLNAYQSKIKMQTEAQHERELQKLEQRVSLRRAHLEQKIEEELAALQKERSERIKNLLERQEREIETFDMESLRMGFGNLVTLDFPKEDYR
Method in brief: as §1

[5] = target: TRKB (Homo sapiens, UniProt Q16620)
Method in brief: as §1

Sequence of TRKB (Q16620 32-822, species assumed): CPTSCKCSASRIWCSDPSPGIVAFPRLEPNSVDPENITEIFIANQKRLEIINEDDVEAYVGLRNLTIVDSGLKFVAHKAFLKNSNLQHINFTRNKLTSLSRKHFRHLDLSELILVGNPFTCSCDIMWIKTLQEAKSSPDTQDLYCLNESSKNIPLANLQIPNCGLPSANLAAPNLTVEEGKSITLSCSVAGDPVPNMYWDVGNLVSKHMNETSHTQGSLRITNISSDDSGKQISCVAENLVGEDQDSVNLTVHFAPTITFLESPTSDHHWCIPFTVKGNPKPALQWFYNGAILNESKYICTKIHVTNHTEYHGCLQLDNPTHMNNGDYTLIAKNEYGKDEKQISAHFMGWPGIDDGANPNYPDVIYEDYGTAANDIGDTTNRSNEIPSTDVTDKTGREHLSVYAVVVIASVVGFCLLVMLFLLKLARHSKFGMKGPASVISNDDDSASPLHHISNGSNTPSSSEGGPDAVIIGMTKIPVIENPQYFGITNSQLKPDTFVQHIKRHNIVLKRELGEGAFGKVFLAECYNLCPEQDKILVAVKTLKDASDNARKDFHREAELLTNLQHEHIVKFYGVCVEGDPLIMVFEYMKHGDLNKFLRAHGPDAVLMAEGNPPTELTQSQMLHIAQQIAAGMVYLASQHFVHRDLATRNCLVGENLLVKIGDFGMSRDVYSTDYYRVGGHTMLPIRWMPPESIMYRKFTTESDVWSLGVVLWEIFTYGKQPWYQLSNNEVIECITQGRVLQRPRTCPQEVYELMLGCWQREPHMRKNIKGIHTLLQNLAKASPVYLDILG
Sequence of P38-b (Q15759 whole entry, species assumed): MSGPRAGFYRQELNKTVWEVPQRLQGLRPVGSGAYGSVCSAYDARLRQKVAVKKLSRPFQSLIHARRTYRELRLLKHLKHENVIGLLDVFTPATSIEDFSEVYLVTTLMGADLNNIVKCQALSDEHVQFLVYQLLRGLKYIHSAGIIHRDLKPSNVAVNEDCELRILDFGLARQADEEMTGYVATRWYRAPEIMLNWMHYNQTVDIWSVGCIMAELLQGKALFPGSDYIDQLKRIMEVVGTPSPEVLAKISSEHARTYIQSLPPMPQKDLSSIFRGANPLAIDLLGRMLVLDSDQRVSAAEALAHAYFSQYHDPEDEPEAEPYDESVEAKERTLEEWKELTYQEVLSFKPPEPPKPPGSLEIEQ
Sequence of EPH-A5 (P54756 25-1037, species assumed): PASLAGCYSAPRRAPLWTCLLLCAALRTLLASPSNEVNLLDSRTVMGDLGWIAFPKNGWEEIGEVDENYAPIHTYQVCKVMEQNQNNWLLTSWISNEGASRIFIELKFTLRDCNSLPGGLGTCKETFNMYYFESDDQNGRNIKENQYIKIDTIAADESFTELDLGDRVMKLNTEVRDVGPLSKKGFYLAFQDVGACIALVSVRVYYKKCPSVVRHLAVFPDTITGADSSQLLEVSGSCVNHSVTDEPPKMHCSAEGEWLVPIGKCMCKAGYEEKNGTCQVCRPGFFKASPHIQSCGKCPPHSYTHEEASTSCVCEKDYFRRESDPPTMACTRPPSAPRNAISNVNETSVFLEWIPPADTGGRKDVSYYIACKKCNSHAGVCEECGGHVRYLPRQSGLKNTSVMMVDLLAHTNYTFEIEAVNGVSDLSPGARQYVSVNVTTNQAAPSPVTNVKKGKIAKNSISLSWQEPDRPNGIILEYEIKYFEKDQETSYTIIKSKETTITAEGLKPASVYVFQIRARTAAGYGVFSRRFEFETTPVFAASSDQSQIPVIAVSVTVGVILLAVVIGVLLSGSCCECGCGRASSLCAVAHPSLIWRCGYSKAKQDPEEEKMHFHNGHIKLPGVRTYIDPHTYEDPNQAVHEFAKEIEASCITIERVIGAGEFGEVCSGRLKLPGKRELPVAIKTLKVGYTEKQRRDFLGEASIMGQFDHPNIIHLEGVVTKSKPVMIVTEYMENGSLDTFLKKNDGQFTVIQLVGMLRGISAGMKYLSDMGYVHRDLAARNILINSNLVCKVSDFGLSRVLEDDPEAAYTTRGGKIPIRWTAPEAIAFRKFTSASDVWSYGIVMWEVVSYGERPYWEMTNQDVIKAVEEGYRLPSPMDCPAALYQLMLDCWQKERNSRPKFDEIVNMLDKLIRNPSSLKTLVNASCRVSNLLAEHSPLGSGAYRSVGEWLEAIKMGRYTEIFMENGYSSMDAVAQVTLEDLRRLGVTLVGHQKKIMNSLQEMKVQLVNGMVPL

Row | SMILES | inhibition at 5 µM [1] [%] | inhibition of kinase activity, EPH-A5 [2] | inhibition at 5 µM [3] [%] | inhibition at 5 µM [4] [%] | inhibition at 5 µM [5] [%]
1 | CSc1nc(C(=O)Nc2ccc(Oc3ccnc(C(=O)NC4COC4)c3)c(F)c2)c(-c2ccc(F)cc2)o1 [Compound 31] | 50 to 79 | E (category E is less than 50%) | < 50 | < 50 | < 50
2 | CNC(=O)c1cc(Oc2ccc(NC(=O)c3nc(OC4CC4)oc3-c3ccc(F)cc3)cc2F)ccn1 [Compound 32] | 80 to 89 | D (category D for 50-79) | 50 to 79 | 50 to 79 | < 50
3 | [2H]C([2H])([2H])NC(=O)c1cc(Oc2ccc(NC(=O)c3nc(SC)oc3-c3ccc(F)c(F)c3)cc2F)ccn1 [Compound 33] | 80 to 89 | E (category E is less than 50%) | < 50 | 50 to 79 | < 50
4 | CNC(=O)c1cc(Oc2ccc(NC(=O)c3nc(SC(C)C)oc3-c3ccc(F)cc3)cc2F)ccn1 [Compound 34] | 50 to 79 | C (C=80%-89% at 5 um) | 50 to 79 | 80 to 89 | 50 to 79
5 | [2H]C([2H])([2H])NC(=O)c1cc(Oc2ccc(NC(=O)c3nc(SC)oc3-c3ccc(F)s3)cc2F)ccn1 [Compound 35] | 50 to 79 | E (category E is less than 50%) | < 50 | < 50 | < 50
6 | CNC(=O)c1ccc(Oc2ccc(NC(=O)c3nc(Cl)oc3-c3ccc(F)cc3)c(F)c2)cn1 [Compound 36] | < 50 | E (category E is less than 50%) | < 50 | < 50 | < 50
7 | CSc1nc(C(=O)Nc2ccc(Oc3ccnc(C(=O)NC4COC4)c3)c(F)c2)c(-c2ccc(F)c(F)c2)o1 [Compound 37] | < 50 | E (category E is less than 50%) | < 50 | < 50 | < 50
8 | CNC(=O)c1cc(Oc2ccc(NC(=O)c3nc(OCC(F)(F)F)oc3-c3ccc(F)cc3)cc2F)ccn1 [Compound 38] | 50 to 79 | E (category E is less than 50%) | < 50 | < 50 | < 50
9 | COc1nc(C(=O)Nc2ccc(Oc3ccnc(C(=O)NC4COC4)c3)c(F)c2)c(-c2ccc(F)cc2)o1 [Compound 39] | 50 to 79 | E (category E is less than 50%) | < 50 | < 50 | < 50
10 | CSc1nc(C(=O)Nc2ccc(Oc3ccnc(C(=O)NCC(F)(F)F)c3)c(F)c2)c(-c2ccc(F)cc2)o1 [Compound 40] | 50 to 79 | E (category E is less than 50%) | < 50 | < 50 | < 50
11 | CSc1nc(C(=O)Nc2ccc(Oc3ccnc(C(=O)NCCN(C)C)c3)c(F)c2)c(-c2ccc(F)cc2)o1 [Compound 41] | 50 to 79 | D (category D for 50-79) | 80 to 89 | 50 to 79 | < 50
12 | CSc1nc(C(=O)Nc2ccc(Oc3ccnc(C(=O)NC4CCN(C)CC4)c3)c(F)c2)c(-c2ccc(F)cc2)o1 [Compound 42] | 50 to 79 | E (category E is less than 50%) | 80 to 89 | < 50 | < 50
13 | COc1nc(C(=O)Nc2ccc(Oc3ccnc(C(=O)NCC(F)(F)F)c3)c(F)c2)c(-c2ccc(F)cc2)o1 [Compound 43] | < 50 | E (category E is less than 50%) | < 50 | < 50 | < 50
